# Measurements: PMC10850145, “Hormonal steroids induce multidrug resistance and stress response genes in Neisseria gonorrhoeae by binding to MtrR” (Nature Communications, 2024)
# Values joined by “and” are separate entries in the source; they are usually repeats but may differ in a detail not shown here. Identical values can stand only once. Like-named read-outs stand apart in the source and are kept apart here.
# Test system: mtrC-lacZ expression
# Assay type: cell-based, Neisseria gonorrhoeae
# Conditions: for β-galactosidase activity, Mean / β-galactosidase activity, single replicate: mtrCDE block (c1-c37), ΔmtrR + mtrR R176E in trans; for β-galactosidase activity, individual replicate / β-galactosidase activity, Miller units (single replicate): mtrR WT in cis; for β-galactosidase activity, individual replicate: single replicate values, second (right) block
# [1] = mtrC-lacZ, ΔmtrR + mtrR D171A in trans, 6.25 µM hormone, single replicate
# [2] = mtrC-lacZ, ΔmtrR + mtrR D171A in trans, 12.5 µM hormone, single replicate
# [3] = mtrC-lacZ, ΔmtrR + mtrR D171A in trans, 25 µM hormone, single replicate
# [4] = mtrC-lacZ, ΔmtrR + mtrR D171A in trans, 50 µM hormone, single replicate
# [5] = mtrC-lacZ, ΔmtrR + mtrR WT in trans, 6.25 µM hormone, single replicate
# [6] = mtrC-lacZ, ΔmtrR + mtrR WT in trans, 12.5 µM hormone, single replicate
# [7] = mtrC-lacZ, ΔmtrR + mtrR WT in trans, 25 µM hormone, single replicate
# [8] = mtrC-lacZ, ΔmtrR + mtrR WT in trans, 50 µM hormone, single replicate
compound,measurement,setting,value
"C[C@]12CC[C@@H]3c4ccc(O)cc4CC[C@H]3[C@@H]1CC[C@@H]2O [β-Estradiol, β-estradiol]","Miller units, Mean","Mean of plate rows 1-4, plate columns 1-6 (first strain), 6.25 µM hormone",83 Miller units
same,"Miller units, Mean","Mean of plate rows 1-4, plate columns 1-6 (first strain), 12.5 µM hormone",113 Miller units
same,"Miller units, Mean","Mean of plate rows 1-4, plate columns 1-6 (first strain), 25 µM hormone",148 Miller units
same,"Miller units, Mean","Mean of plate rows 1-4, plate columns 1-6 (first strain), 50 µM hormone",162 Miller units
same,"Miller units, Mean","Mean of plate rows 1-4, plate columns 7-12 (second strain), 6.25 µM hormone",163 Miller units
same,"Miller units, Mean","Mean of plate rows 1-4, plate columns 7-12 (second strain), 12.5 µM hormone",152 Miller units
same,"Miller units, Mean","Mean of plate rows 1-4, plate columns 7-12 (second strain), 25 µM hormone",175 Miller units
same,"Miller units, Mean","Mean of plate rows 1-4, plate columns 7-12 (second strain), 50 µM hormone",160 Miller units
same,induction of mtrC expression,"complemented (MtrR+) strains, increasing hormone",could be induced
same,induction of mtrC expression,loss of MtrR or MtrR-D171A strain,abrogated
same,"Miller units, Mean","mtrC-lacZ, WT strain, 6.25 µM hormone",131 Miller units
same,β-galactosidase activity (Miller units),"mtrC-lacZ, WT strain, 6.25 µM hormone, single replicate",164 Miller units and 114 Miller units and 120 Miller units
same,"Miller units, Mean","mtrC-lacZ, WT strain, 12.5 µM hormone",148 Miller units
same,β-galactosidase activity (Miller units),"mtrC-lacZ, WT strain, 12.5 µM hormone, single replicate",178 Miller units and 161 Miller units and 132 Miller units
same,"Miller units, Mean","mtrC-lacZ, WT strain, 25 µM hormone",177 Miller units
same,β-galactosidase activity (Miller units),"mtrC-lacZ, WT strain, 25 µM hormone, single replicate",160 Miller units and 189 Miller units
same,"Miller units, Mean","mtrC-lacZ, WT strain, 50 µM hormone",224 Miller units
same,β-galactosidase activity (Miller units),"mtrC-lacZ, WT strain, 50 µM hormone, single replicate",242 Miller units and 240 Miller units and 211 Miller units
same,"Miller units, Mean","mtrC-lacZ, WT, 6.25 µM hormone",131 Miller units
same,Miller units,"mtrC-lacZ, WT, 6.25 µM hormone, single replicate (plate data)",164 Miller units and 114 Miller units and 128 Miller units and 120 Miller units
same,"Miller units, Mean","mtrC-lacZ, WT, 12.5 µM hormone",148 Miller units
same,Miller units,"mtrC-lacZ, WT, 12.5 µM hormone, single replicate (plate data)",178 Miller units and 161 Miller units and 120 Miller units and 132 Miller units
same,"Miller units, Mean","mtrC-lacZ, WT, 25 µM hormone",177 Miller units
same,Miller units,"mtrC-lacZ, WT, 25 µM hormone, single replicate (plate data)",160 Miller units and 176 Miller units and 189 Miller units
same,"Miller units, Mean","mtrC-lacZ, WT, 50 µM hormone",224 Miller units
same,Miller units,"mtrC-lacZ, WT, 50 µM hormone, single replicate (plate data)",242 Miller units and 240 Miller units and 203 Miller units and 211 Miller units
same,"Miller units, Mean","mtrC-lacZ, ΔmtrR + mtrR D171A in trans, 6.25 µM hormone",148.9 Miller units
same,Miller units,[1],158 Miller units and 155 Miller units
same,β-galactosidase activity (Miller units),[1],155 Miller units and 147 Miller units and 135 Miller units
same,"Miller units, Mean","mtrC-lacZ, ΔmtrR + mtrR D171A in trans, 12.5 µM hormone",157.2 Miller units
same,Miller units,[2],167 Miller units and 147 Miller units
same,β-galactosidase activity (Miller units),[2],147 Miller units and 195 Miller units and 119 Miller units
same,"Miller units, Mean","mtrC-lacZ, ΔmtrR + mtrR D171A in trans, 25 µM hormone",167.0 Miller units
same,Miller units,[3],203 Miller units and 162 Miller units
same,β-galactosidase activity (Miller units),[3],162 Miller units and 132 Miller units and 171 Miller units
same,"Miller units, Mean","mtrC-lacZ, ΔmtrR + mtrR D171A in trans, 50 µM hormone",162.7 Miller units
same,Miller units,[4],193 Miller units
same,β-galactosidase activity (Miller units),[4],188 Miller units and 124 Miller units and 146 Miller units
same,"Miller units, Mean","mtrC-lacZ, ΔmtrR + mtrR WT in trans, 6.25 µM hormone",116 Miller units
same,Miller units,[5],106 Miller units and 141 Miller units and 104 Miller units and 116 Miller units
same,β-galactosidase activity (Miller units),[5],106 Miller units and 141 Miller units and 104 Miller units and 116 Miller units
same,"Miller units, Mean","mtrC-lacZ, ΔmtrR + mtrR WT in trans, 12.5 µM hormone",113 Miller units
same,Miller units,[6],119 Miller units and 115 Miller units and 110 Miller units
same,β-galactosidase activity (Miller units),[6],119 Miller units and 115 Miller units and 110 Miller units
same,"Miller units, Mean","mtrC-lacZ, ΔmtrR + mtrR WT in trans, 25 µM hormone",138 Miller units
same,Miller units,[7],133 Miller units and 147 Miller units and 127 Miller units and 144 Miller units
same,β-galactosidase activity (Miller units),[7],133 Miller units and 147 Miller units and 127 Miller units and 144 Miller units
same,"Miller units, Mean","mtrC-lacZ, ΔmtrR + mtrR WT in trans, 50 µM hormone",158 Miller units
same,Miller units,[8],176 Miller units and 161 Miller units and 132 Miller units and 164 Miller units
same,β-galactosidase activity (Miller units),[8],176 Miller units and 161 Miller units and 132 Miller units and 164 Miller units
same,"Miller units, Mean","mtrC-lacZ, ΔmtrR strain, 6.25 µM hormone",210 Miller units
same,β-galactosidase activity (Miller units),"mtrC-lacZ, ΔmtrR strain, 6.25 µM hormone, single replicate",187 Miller units and 203 Miller units and 200 Miller units
same,"Miller units, Mean","mtrC-lacZ, ΔmtrR strain, 12.5 µM hormone",218 Miller units
same,β-galactosidase activity (Miller units),"mtrC-lacZ, ΔmtrR strain, 12.5 µM hormone, single replicate",197 Miller units and 237 Miller units and 209 Miller units
same,"Miller units, Mean","mtrC-lacZ, ΔmtrR strain, 25 µM hormone",243 Miller units
same,β-galactosidase activity (Miller units),"mtrC-lacZ, ΔmtrR strain, 25 µM hormone, single replicate",261 Miller units and 223 Miller units and 202 Miller units
same,"Miller units, Mean","mtrC-lacZ, ΔmtrR strain, 50 µM hormone",255 Miller units
same,β-galactosidase activity (Miller units),"mtrC-lacZ, ΔmtrR strain, 50 µM hormone, single replicate",220 Miller units and 317 Miller units
same,"Miller units, Mean","mtrC-lacZ, ΔmtrR, 6.25 µM hormone",210 Miller units
same,Miller units,"mtrC-lacZ, ΔmtrR, 6.25 µM hormone, single replicate (plate data)",203 Miller units and 200 Miller units and 187 Miller units and 250 Miller units
same,"Miller units, Mean","mtrC-lacZ, ΔmtrR, 12.5 µM hormone",218 Miller units
same,Miller units,"mtrC-lacZ, ΔmtrR, 12.5 µM hormone, single replicate (plate data)",237 Miller units and 209 Miller units and 197 Miller units and 228 Miller units
same,"Miller units, Mean","mtrC-lacZ, ΔmtrR, 25 µM hormone",243 Miller units
same,Miller units,"mtrC-lacZ, ΔmtrR, 25 µM hormone, single replicate (plate data)",223 Miller units and 202 Miller units and 261 Miller units and 287 Miller units
same,"Miller units, Mean","mtrC-lacZ, ΔmtrR, 50 µM hormone",255 Miller units
same,Miller units,"mtrC-lacZ, ΔmtrR, 50 µM hormone, single replicate (plate data)",317 Miller units and 220 Miller units and 261 Miller units
same,"β-galactosidase activity, Mean",6.25 µM,194 Miller units
same,"β-galactosidase activity, single replicate",6.25 µM,207 Miller units and 196 Miller units and 188 Miller units
same,"β-galactosidase activity, Mean",12.5 µM,205 Miller units
same,"β-galactosidase activity, single replicate",12.5 µM,258 Miller units and 180 Miller units and 177 Miller units and 206 Miller units
same,"β-galactosidase activity, Mean",25 µM,197 Miller units
same,"β-galactosidase activity, single replicate",25 µM,241 Miller units and 190 Miller units and 188 Miller units and 169 Miller units
same,"β-galactosidase activity, Mean",50 µM,269 Miller units
same,"β-galactosidase activity, single replicate",50 µM,316 Miller units and 254 Miller units and 275 Miller units and 231 Miller units
same,"β-galactosidase activity, individual replicate",6.25 µM hormone,54 Miller units and 39 Miller units
same,"β-galactosidase activity, Miller units (single replicate)","6.25 µM, first data set (c15-c36)",147 Miller units and 157 Miller units and 114 Miller units and 129 Miller units
same,"β-galactosidase activity, Miller units (single replicate)","6.25 µM, second data set (c53-c74)",43 Miller units and 41 Miller units
same,"β-galactosidase activity, individual replicate",12.5 µM hormone,72 Miller units and 56 Miller units
same,"β-galactosidase activity, Miller units (single replicate)","12.5 µM, first data set (c15-c36)",160 Miller units and 155 Miller units and 156 Miller units and 149 Miller units
same,"β-galactosidase activity, Miller units (single replicate)","12.5 µM, second data set (c53-c74)",45 Miller units and 43 Miller units
same,"β-galactosidase activity, individual replicate",25 µM hormone,63 Miller units
same,"β-galactosidase activity, Miller units (single replicate)","25 µM, first data set (c15-c36)",152 Miller units and 181 Miller units and 159 Miller units and 157 Miller units
same,"β-galactosidase activity, Miller units (single replicate)","25 µM, second data set (c53-c74)",63 Miller units and 52 Miller units
